Measurements as given in ChEMBL document CHEMBL5291721, “A preclinical secondary pharmacology resource illuminates target-adverse drug reaction associations of marketed drugs” (Nat Commun, 2023).

What was measured:
Progesterone receptor = biological target: T1, Progesterone receptor (Homo sapiens, UniProt P06401); format: functional
T1 sequence (P06401 whole entry): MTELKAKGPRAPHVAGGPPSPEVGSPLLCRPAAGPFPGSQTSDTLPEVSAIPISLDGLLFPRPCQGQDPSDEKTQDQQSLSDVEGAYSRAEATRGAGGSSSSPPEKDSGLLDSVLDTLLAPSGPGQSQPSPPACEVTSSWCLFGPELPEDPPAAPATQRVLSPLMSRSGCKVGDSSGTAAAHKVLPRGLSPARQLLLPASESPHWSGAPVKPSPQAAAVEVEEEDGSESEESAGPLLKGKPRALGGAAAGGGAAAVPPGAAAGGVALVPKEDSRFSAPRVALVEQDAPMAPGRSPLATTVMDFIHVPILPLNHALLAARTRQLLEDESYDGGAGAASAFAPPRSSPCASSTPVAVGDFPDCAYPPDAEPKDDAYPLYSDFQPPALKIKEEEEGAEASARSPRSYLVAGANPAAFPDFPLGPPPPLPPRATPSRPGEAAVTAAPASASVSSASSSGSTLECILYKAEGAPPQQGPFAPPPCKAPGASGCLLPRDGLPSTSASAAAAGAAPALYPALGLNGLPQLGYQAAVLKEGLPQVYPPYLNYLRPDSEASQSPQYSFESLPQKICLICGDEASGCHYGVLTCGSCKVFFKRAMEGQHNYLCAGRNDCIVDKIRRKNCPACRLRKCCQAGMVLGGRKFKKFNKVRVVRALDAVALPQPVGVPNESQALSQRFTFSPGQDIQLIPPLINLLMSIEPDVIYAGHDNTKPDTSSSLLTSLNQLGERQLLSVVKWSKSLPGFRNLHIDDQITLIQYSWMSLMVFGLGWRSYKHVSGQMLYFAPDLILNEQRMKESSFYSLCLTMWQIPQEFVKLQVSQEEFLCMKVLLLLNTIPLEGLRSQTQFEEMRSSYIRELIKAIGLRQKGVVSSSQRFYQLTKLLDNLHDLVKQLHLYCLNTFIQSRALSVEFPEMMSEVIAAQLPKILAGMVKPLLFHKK

[1] = biological target: T2, 5-hydroxytryptamine receptor 1A (Homo sapiens, UniProt P08908); format: functional, cell-based
T2 sequence (P08908 whole entry): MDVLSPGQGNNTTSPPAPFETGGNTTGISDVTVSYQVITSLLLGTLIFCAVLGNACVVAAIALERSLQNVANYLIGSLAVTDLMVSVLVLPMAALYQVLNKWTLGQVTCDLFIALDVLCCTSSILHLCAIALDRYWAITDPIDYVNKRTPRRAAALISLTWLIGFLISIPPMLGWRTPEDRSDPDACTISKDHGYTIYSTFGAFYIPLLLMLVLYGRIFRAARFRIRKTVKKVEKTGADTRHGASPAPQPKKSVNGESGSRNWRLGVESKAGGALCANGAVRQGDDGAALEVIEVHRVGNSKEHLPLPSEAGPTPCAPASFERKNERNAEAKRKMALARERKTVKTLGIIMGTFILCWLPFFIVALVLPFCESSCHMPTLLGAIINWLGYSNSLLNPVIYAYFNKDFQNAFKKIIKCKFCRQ

Vasopressin V1a receptor = Vasopressin V1a receptor (Homo sapiens, UniProt P37288)
Histamine H3 receptor = Histamine H3 receptor (Homo sapiens, UniProt Q9Y5N1)
B2 bradykinin receptor = biological target: T3, B2 bradykinin receptor (Homo sapiens, UniProt P30411)
T3 sequence (P30411 whole entry): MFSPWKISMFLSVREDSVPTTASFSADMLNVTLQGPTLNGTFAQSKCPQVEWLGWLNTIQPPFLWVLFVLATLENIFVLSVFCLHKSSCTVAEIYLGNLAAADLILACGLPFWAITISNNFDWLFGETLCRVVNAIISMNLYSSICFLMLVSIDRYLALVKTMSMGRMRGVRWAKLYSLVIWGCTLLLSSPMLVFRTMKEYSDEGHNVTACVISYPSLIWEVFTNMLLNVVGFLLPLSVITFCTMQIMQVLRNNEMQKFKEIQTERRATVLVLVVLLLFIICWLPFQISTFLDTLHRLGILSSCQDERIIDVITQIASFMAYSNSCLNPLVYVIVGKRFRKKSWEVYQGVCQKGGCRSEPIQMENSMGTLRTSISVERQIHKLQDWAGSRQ

Melanocortin receptor 3 = Melanocortin receptor 3 (Homo sapiens, UniProt P41968)
[2] = biological target: T4, Muscarinic acetylcholine receptor M1 (Homo sapiens, UniProt P11229); format: functional
T4 sequence (P11229 whole entry): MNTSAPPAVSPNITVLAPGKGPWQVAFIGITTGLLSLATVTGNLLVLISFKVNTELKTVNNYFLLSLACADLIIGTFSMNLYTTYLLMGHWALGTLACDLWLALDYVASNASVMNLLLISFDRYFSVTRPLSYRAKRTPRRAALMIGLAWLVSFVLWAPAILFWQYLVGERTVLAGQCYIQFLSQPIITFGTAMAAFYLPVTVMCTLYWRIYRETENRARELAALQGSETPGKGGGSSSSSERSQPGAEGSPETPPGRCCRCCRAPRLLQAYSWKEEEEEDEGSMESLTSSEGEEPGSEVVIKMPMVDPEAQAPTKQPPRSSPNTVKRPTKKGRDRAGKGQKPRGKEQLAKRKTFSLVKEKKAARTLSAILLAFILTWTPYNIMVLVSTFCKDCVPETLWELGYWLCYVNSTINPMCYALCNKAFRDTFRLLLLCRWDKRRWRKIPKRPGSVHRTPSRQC

[3] = biological target: 5-hydroxytryptamine receptor 2A (Homo sapiens, UniProt P28223); format: functional, cell-based
Further: assay procedure not described here.

Melanocortin receptor 3, sequence (P41968 whole entry): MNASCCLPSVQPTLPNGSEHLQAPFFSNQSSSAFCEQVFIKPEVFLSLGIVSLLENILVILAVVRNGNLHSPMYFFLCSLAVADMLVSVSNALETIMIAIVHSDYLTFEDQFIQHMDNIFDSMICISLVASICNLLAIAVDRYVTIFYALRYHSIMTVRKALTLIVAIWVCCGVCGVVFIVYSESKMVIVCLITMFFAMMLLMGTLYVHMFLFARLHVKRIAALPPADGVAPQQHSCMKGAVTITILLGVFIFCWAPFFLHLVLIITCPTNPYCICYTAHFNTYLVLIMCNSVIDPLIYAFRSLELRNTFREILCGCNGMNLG
Vasopressin V1a receptor, sequence (P37288 whole entry): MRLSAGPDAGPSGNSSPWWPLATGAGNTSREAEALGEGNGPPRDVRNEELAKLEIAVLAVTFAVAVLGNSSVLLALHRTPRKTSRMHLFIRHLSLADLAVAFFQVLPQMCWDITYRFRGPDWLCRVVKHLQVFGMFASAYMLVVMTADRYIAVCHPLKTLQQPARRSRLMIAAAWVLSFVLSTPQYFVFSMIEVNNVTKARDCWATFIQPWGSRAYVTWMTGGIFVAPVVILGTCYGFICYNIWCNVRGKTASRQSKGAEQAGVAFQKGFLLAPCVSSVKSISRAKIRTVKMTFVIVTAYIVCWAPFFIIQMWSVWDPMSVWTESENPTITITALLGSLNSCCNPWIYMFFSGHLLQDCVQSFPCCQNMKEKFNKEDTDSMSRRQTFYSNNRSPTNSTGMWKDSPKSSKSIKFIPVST
Histamine H3 receptor, sequence (Q9Y5N1 whole entry): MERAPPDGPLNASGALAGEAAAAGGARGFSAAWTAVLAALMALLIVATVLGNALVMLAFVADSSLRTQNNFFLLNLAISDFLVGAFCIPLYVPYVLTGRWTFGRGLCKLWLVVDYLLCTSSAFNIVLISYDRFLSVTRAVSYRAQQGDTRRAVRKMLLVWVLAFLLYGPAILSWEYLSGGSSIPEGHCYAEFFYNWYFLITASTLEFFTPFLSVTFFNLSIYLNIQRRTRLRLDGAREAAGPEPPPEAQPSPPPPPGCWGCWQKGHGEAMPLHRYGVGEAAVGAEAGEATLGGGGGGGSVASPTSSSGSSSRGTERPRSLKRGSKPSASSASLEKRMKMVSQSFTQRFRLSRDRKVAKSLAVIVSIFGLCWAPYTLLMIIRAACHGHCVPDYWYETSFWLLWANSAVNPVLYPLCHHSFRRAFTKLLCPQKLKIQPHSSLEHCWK
5-hydroxytryptamine receptor 2A, sequence (P28223 whole entry): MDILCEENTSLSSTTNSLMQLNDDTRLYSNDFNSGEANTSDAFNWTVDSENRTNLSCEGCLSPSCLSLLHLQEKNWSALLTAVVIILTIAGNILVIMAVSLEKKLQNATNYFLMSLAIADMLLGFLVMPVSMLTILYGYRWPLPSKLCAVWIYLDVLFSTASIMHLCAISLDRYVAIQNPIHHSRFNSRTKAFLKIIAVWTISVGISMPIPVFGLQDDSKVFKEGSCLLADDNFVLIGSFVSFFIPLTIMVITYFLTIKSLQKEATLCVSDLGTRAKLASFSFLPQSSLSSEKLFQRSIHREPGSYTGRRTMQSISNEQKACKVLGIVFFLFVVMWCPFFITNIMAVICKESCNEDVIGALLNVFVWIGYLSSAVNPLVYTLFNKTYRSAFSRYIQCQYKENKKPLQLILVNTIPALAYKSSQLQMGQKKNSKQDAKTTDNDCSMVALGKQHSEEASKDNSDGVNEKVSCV

Structure (SMILES) | AC50 (Progesterone receptor) | AC50 [1] | AC50 (Vasopressin V1a receptor) | AC50 (Histamine H3 receptor) | AC50 (B2 bradykinin receptor) | AC50 (Melanocortin receptor 3) | AC50 [2] | AC50 [3]
Cc1cc2c(OCC(CNC(C)(C)C)OC(=O)c3ccccc3)cccc2[nH]1 (configuration not stated) [BOPINDOLOL] | > 30 µM | 0.028 µM | > 30 µM | > 30 µM | > 30 µM | > 30 µM | – | –
COc1c(C)c2c(c(O)c1C/C=C(\C)CCC(=O)OCCN1CCOCC1)C(=O)OC2 [MYCOPHENOLATE MOFETIL] | > 30 µM | – | – | > 30 µM | > 30 µM | > 30 µM | – | –
CCNC(C)Cc1cccc(C(F)(F)F)c1 (configuration not stated) [FENFLURAMINE] | – | – | > 10 µM | > 10 µM | > 30 µM | > 30 µM | – | –
Cc1c(O)c(=O)ccn1C [DEFERIPRONE] | > 30 µM | > 30 µM | – | > 30 µM | > 30 µM | > 30 µM | – | –
COc1ccc2c(c1)c(CC(=O)OCC(=O)O)c(C)n2C(=O)c1ccc(Cl)cc1 [ACEMETACIN] | > 30 µM | 25 µM | – | > 30 µM | > 30 µM | > 30 µM | – | –
COc1ccccc1OCC(O)COC(N)=O (configuration not stated) [METHOCARBAMOL] | > 30 µM | > 10 µM | – | – | > 10 µM | > 10 µM | – | –
CC/C=C\C/C=C\C/C=C\CCCCCCCC(=O)O [LINOLENIC ACID] | – | – | > 30 µM | > 30 µM | > 30 µM | > 30 µM | > 30 µM | > 30 µM
CC[C@]1(O)C[C@@H]2CN(CCc3c([nH]c4ccccc34)[C@@](C(=O)OC)(c3cc4c(cc3OC)N(C)[C@H]3[C@@](O)(C(N)=O)[C@H](O)[C@]5(CC)C=CCN6CC[C@]43[C@@H]65)C2)C1 [VINDESINE] | > 30 µM | – | – | > 30 µM | > 30 µM | > 30 µM | – | –
Nc1nc2ccc(OC(F)(F)F)cc2s1 [RILUZOLE] | > 30 µM | > 30 µM | > 30 µM | > 30 µM | > 30 µM | > 30 µM | – | –
CC(C)(Oc1ccc(C2CC2(Cl)Cl)cc1)C(=O)O (configuration not stated) [CIPROFIBRATE] | > 30 µM | > 30 µM | – | > 30 µM | > 30 µM | > 30 µM | – | –
C#CCN[C@@H]1CCc2ccccc21 [RASAGILINE] | > 30 µM | > 30 µM | > 30 µM | > 30 µM | > 30 µM | > 30 µM | > 30 µM | > 30 µM
C#CCN(C)[C@H](C)Cc1ccccc1 [SELEGILINE] | > 10 µM | – | – | > 10 µM | > 10 µM | > 10 µM | – | –
CC(=O)O[C@@]12CO[C@@H]1C[C@H](O)[C@@]1(C)C(=O)[C@H](O)C3=C(C)[C@@H](OC(=O)[C@H](O)[C@@H](NC(=O)OC(C)(C)C)c4ccccc4)C[C@@](O)([C@@H](OC(=O)c4ccccc4)[C@H]21)C3(C)C [DOCETAXEL ANHYDROUS] | > 30 µM | > 30 µM | – | > 30 µM | > 30 µM | > 30 µM | – | –
CN[C@@H](C)[C@H](O)c1ccccc1 [EPHEDRINE] | – | > 10 µM | > 10 µM | > 10 µM | > 30 µM | > 30 µM | > 10 µM | –
